In patent US20250368627A1, “PYRAZOLESULFONAMIDES AS ANTITUMOR AGENTS” (Peloton Therapeutics, Inc., a fully owned subsidiary of …, priority 2019, published 2025):

Experiments:
[1] = system: HCT116 human colorectal carcinoma cells; assay: CellTiter-Glo Luminescent Cell Viability Assay; type: cell-based; settings: HCT-116, 72 h, 3 days
Method in brief: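 CellTiter-Glo luminescence gave viability after 3 days of compound exposure in HCT116 cells grown in DMEM/10% FBS. Final concentrations ran from 5 to 0.0002 […] in 1:3 steps, each in triplicate, with IC50 derived from the curves.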

[2] = biological target: T1, DDB1DB/DCAF15 and RBM39 R1R2 complex (Homo sapiens, UniProt Q14498+Q66K64); assay: DCAF15 RBM39 Complex Formation Assay (FRET); type: binding; settings: FRET ratio Em 665/Em 615, incubated overnight at 4° C.
T1 construct: Amino acids 150 to 331 of RBM39 were cloned into pGEX4T3; GST (from vector pGEX4T3); TEV cleavage site (N); made in house; host or cells: DDB1DB/His-DCAF15: baculovirus/Sf9 co-expression; RBM39 R1R2: E. coli (pGEX4T3)
Method in brief: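 Ternary complex formation read by TR-FRET (Em 665/615, excitation 340 nm) after overnight incubation at 4° C of 20 nM baculovirus DDB1DB/His-DCAF15 and 50 nM E. coli RBM39 RRM1-RRM2 FLAG fragment with 14-point, 3-fold compound dilutions from 1 μM; EC50 from 4-parameter fit.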

T1 sequence (Q66K64 whole entry, the tested form may be a part): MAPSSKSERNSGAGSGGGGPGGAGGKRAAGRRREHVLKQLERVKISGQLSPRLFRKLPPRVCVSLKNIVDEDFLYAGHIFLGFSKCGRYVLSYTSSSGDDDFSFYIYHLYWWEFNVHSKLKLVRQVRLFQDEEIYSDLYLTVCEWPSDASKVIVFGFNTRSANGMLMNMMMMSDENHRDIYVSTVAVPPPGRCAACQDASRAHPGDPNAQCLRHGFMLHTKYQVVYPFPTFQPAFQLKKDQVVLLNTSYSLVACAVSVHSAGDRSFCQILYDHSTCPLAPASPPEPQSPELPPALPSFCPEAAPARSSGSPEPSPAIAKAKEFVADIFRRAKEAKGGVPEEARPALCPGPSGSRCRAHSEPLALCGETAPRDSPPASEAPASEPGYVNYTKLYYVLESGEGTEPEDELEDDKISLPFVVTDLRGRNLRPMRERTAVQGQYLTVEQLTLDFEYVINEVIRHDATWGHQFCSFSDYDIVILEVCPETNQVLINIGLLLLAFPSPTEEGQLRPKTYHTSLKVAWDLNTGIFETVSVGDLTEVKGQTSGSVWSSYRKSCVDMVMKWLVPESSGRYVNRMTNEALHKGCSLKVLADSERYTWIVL
T1 sequence (Q14498 150-331): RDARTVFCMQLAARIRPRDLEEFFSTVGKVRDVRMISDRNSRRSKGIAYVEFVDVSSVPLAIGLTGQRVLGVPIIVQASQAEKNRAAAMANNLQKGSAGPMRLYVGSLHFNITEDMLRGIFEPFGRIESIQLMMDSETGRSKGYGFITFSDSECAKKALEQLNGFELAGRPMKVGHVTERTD
T1 sequence (Q16531 with tags, fused parts or gaps DEL396-708 partner): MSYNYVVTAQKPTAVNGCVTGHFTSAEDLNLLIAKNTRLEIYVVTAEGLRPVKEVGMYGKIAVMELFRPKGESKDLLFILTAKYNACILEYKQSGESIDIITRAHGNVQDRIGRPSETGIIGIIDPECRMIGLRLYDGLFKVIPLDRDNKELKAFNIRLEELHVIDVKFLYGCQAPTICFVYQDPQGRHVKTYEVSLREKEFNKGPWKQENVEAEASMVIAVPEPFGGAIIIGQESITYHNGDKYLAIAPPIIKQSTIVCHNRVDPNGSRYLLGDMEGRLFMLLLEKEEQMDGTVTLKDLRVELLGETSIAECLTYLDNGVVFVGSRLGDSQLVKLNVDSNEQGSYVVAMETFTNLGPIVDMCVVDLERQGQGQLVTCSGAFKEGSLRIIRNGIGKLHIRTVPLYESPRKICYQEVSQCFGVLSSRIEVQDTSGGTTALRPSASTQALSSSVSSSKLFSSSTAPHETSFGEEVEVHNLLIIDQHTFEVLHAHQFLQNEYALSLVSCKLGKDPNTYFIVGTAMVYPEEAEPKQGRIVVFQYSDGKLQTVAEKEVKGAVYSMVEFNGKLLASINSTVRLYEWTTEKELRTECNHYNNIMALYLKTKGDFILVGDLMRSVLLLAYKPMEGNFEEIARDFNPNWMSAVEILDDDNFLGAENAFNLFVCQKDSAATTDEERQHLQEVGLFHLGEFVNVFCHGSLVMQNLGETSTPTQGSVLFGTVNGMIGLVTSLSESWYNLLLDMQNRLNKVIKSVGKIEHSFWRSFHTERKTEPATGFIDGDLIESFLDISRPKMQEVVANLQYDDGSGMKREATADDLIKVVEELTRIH

SMILES | EC50 [1] [nM] | IC50 [2] [nM]
N#Cc1c[nH]c2c(NS(=O)(=O)c3cn[nH]c3)ccc(F)c12 [Compound 214, N-(3-cyano-4-fluoro-1H-indol-7-yl)-1H-pyrazole-4-sulfonamide] | > 1000 | < 250
N#Cc1c[nH]c2c(NS(=O)(=O)c3cnn(C(F)F)c3)ccc(F)c12 [Compound 215, N-(3-cyano-4-fluoro-1H-indol-7-yl)-1-(difluoromethyl)pyrazole-4-sulfonamide] | 250 to 1000 | < 250
N#Cc1c[nH]c2c(NS(=O)(=O)c3cnn(CC(F)(F)F)c3)ccc(F)c12 [Compound 216, N-(3-cyano-4-fluoro-1H-indol-7-yl)-1-(2,2,2-trifluoroethyl)pyrazole-4-sulfonamide] | 250 to 1000 | < 250
CCn1cc(S(=O)(=O)Nc2ccc(F)c3c(C#N)c[nH]c23)cn1 [Compound 217, N-(3-cyano-4-fluoro-1H-indol-7-yl)-1-ethyl-pyrazole-4-sulfonamide] | 250 to 1000 | < 250
Cc1ccc(NS(=O)(=O)c2cnn(C34CC(C3)C4)c2)c2[nH]cc(C#N)c12 [Compound 218, 1-(3-bicyclo[1.1.1]pentanyl)-N-(3-cyano-4-methyl-1H-indol-7-yl)pyrazole-4-sulfonamide] | 250 to 1000 | < 250
N#Cc1c[nH]c2c(NS(=O)(=O)c3cnn(C45CC(C4)C5)c3)ccc(F)c12 [Compound 219, 1-(3-bicyclo[1.1.1]pentanyl)-N-(3-cyano-4-fluoro-1H-indol-7-yl)pyrazole-4-sulfonamide] | 250 to 1000 | < 250
CC(C)(O)CCn1cc(S(=O)(=O)Nc2ccc(Cl)c3c(C#N)c[nH]c23)cn1 [Compound 220, N-(4-chloro-3-cyano-1H-indol-7-yl)-1-(3-hydroxy-3-methyl-butyl)pyrazole-4-sulfonamide] | 250 to 1000 | < 250
Cc1ccc(NS(=O)(=O)c2cnn(CCC(C)(C)O)c2)c2[nH]cc(C#N)c12 [Compound 221, N-(3-cyano-4-methyl-1H-indol-7-yl)-1-(3-hydroxy-3-methyl-butyl)pyrazole-4-sulfonamide] | < 250 | < 250
CC(C)(O)CCn1cc(S(=O)(=O)Nc2ccc(F)c3c(C#N)c[nH]c23)cn1 [Compound 222, N-(3-cyano-4-fluoro-1H-indol-7-yl)-1-(3-hydroxy-3-methyl-butyl)pyrazole-4-sulfonamide] | 250 to 1000 | < 250
N#Cc1c[nH]c2c(NS(=O)(=O)c3cnn(C45CC(C4)C5)c3)ccc(Cl)c12 [Compound 223, 1-(3-bicyclo[1.1.1]pentanyl)-N-(4-chloro-3-cyano-1H-indol-7-yl)pyrazole-4-sulfonamide] | 250 to 1000 | < 250
CC(C)(CO)n1cc(S(=O)(=O)Nc2ccc(F)c3c(C#N)c[nH]c23)cn1 [Compound 224, N-(3-cyano-4-fluoro-1H-indol-7-yl)-1-(2-hydroxy-1,1-dimethyl-ethyl)pyrazole-4-sulfonamide] | 250 to 1000 | < 250
C[C@H](CF)n1cc(S(=O)(=O)Nc2ccc(F)c3c(C#N)c[nH]c23)cn1 [Compound 225, N-(3-cyano-4-fluoro-1H-indol-7-yl)-1-[(1R)-2-fluoro-1-methyl-ethyl]pyrazole-4-sulfonamide] | 250 to 1000 | < 250
N#Cc1c[nH]c2c(NS(=O)(=O)c3cnn([C@@H](CO)C(F)F)c3)ccc(Cl)c12 [Compound 226, N-(4-chloro-3-cyano-1H-indol-7-yl)-1-[(1S)-2,2-difluoro-1-(hydroxymethyl)ethyl]pyrazole-4-sulfonamide] | 250 to 1000 | < 250
Cc1ccc(NS(=O)(=O)c2cnn([C@@H](CO)C(F)F)c2)c2[nH]cc(C#N)c12 [Compound 227, N-(3-cyano-4-methyl-1H-indol-7-yl)-1-[(1S)-2,2-difluoro-1-(hydroxymethyl)ethyl]pyrazole-4-sulfonamide] | 250 to 1000 | < 250
N#Cc1c[nH]c2c(NS(=O)(=O)c3cnn([C@@H](CO)C(F)F)c3)ccc(F)c12 [Compound 228, N-(3-cyano-4-fluoro-1H-indol-7-yl)-1-[(1S)-2,2-difluoro-1-(hydroxymethyl)ethyl]pyrazole-4-sulfonamide] | > 1000 | < 250
Cc1ccc(NS(=O)(=O)c2cnn(C(C)(C)CCO)c2)c2[nH]cc(C#N)c12 [Compound 229, N-(3-cyano-4-methyl-1H-indol-7-yl)-1-(4-hydroxy-2-methylbutan-2-yl)-1H-pyrazole-4-sulfonamide] | < 250 | < 250
CC(C)(CCO)n1cc(S(=O)(=O)Nc2ccc(Cl)c3c(C#N)c[nH]c23)cn1 [Compound 230, N-(4-chloro-3-cyano-1H-indol-7-yl)-1-(3-hydroxy-1,1-dimethyl-propyl)pyrazole-4-sulfonamide] | < 250 | < 250

SMILES | EC50 [1] [nM] | IC50 [2] [nM]
Cc1ccc(NS(=O)(=O)c2cnn(C(C)(C)CC(C)(C)O)c2)c2[nH]cc(C#N)c12 [Compound 231, N-(3-cyano-4-methyl-1H-indol-7-yl)-1-(3-hydroxy-1,1,3-trimethyl-butyl)pyrazole-4-sulfonamide] | < 250 | < 250
C[C@@H](O)[C@H](C)n1cc(S(=O)(=O)Nc2ccc(Cl)c3c(C#N)c[nH]c23)cn1 [Compound 232, N-(4-chloro-3-cyano-1H-indol-7-yl)-1-[(1S,2R)-2-hydroxy-1-methyl-propyl]pyrazole-4-sulfonamide] | 250 to 1000 | < 250
C[C@@H](O)[C@H](C)n1cc(S(=O)(=O)Nc2ccc(F)c3c(C#N)c[nH]c23)cn1 [Compound 233, N-(3-cyano-4-fluoro-1H-indol-7-yl)-1-[(1S,2R)-2-hydroxy-1-methyl-propyl]pyrazole-4-sulfonamide] | 250 to 1000 | < 250
Cc1ccc(NS(=O)(=O)c2cnn([C@@H](C)[C@@H](C)O)c2)c2[nH]cc(C#N)c12 [Compound 234, N-(3-cyano-4-methyl-1H-indol-7-yl)-1-[(1S,2R)-2-hydroxy-1-methyl-propyl]pyrazole-4-sulfonamide] | < 250 | < 250
CC(C)(CO)n1cc(S(=O)(=O)Nc2cccc3c(C#N)c[nH]c23)cn1 [Compound 235, N-(3-cyano-1H-indol-7-yl)-1-(2-hydroxy-1,1-dimethyl-ethyl)pyrazole-4-sulfonamide] | 250 to 1000 | < 250
Cc1ccc(NS(=O)(=O)c2cnn(C(C)CCO)c2)c2[nH]cc(C#N)c12 (stereo not drawn) [Compound 236, N-(3-cyano-4-methyl-1H-indol-7-yl)-1-(3-hydroxy-1-methyl-propyl)pyrazole-4-sulfonamide] | < 250 | < 250
CC(CCO)n1cc(S(=O)(=O)Nc2ccc(Cl)c3c(C#N)c[nH]c23)cn1 (stereo not drawn) [Compound 237, N-(4-chloro-3-cyano-1H-indol-7-yl)-1-(3-hydroxy-1-methyl-propyl)pyrazole-4-sulfonamide] | < 250 | < 250
N#Cc1c[nH]c2c(NS(=O)(=O)c3cnn([C@@H](CO)CF)c3)ccc(Cl)c12 [Compound 238, N-(4-chloro-3-cyano-1H-indol-7-yl)-1-[(1S)-1-(fluoromethyl)-2-hydroxy-ethyl]pyrazole-4-sulfonamide] | 250 to 1000 | < 250
Cc1ccc(NS(=O)(=O)c2cnn(C)c2CCO)c2[nH]cc(C#N)c12 [Compound 239, N-(3-cyano-4-methyl-1H-indol-7-yl)-5-(2-hydroxyethyl)-1-methyl-pyrazole-4-sulfonamide] | > 1000 | < 250
CC(C)(C(N)=O)n1cc(S(=O)(=O)Nc2ccc(F)c3c(C#N)c[nH]c23)cn1 [Compound 240, 2-[4-[(3-cyano-4-fluoro-1H-indol-7-yl)sulfamoyl]pyrazol-1-yl]-2-methyl-propanamide] | > 1000 | < 250
Cc1ccc(NS(=O)(=O)c2cnn(C(C)(C)C(N)=O)c2)c2[nH]cc(C#N)c12 [Compound 241, 2-[4-[(3-cyano-4-methyl-1H-indol-7-yl)sulfamoyl]pyrazol-1-yl]-2-methyl-propanamide] | 250 to 1000 | < 250
Cc1ccc(NS(=O)(=O)c2cnn(C(C)CC(C)(C)O)c2)c2[nH]cc(C#N)c12 (stereo not drawn) [Compound 242, N-(3-cyano-4-methyl-1H-indol-7-yl)-1-(3-hydroxy-1,3-dimethyl-butyl)pyrazole-4-sulfonamide] | < 250 | < 250
CC(CC(C)(C)O)n1cc(S(=O)(=O)Nc2ccc(Cl)c3c(C#N)c[nH]c23)cn1 (stereo not drawn) [Compound 243, N-(4-chloro-3-cyano-1H-indol-7-yl)-1-(3-hydroxy-1,3-dimethyl-butyl)pyrazole-4-sulfonamide] | 250 to 1000 | < 250
Cc1ccc(NS(=O)(=O)c2cnn(C(C)(C)CO)c2Cl)c2[nH]cc(C#N)c12 [Compound 244, 5-chloro-N-(3-cyano-4-methyl-1H-indol-7-yl)-1-(2-hydroxy-1,1-dimethyl-ethyl)pyrazole-4-sulfonamide] | < 250 | < 250
CC(C)(CO)n1ncc(S(=O)(=O)Nc2ccc(F)c3c(C#N)c[nH]c23)c1Cl [Compound 245, 5-chloro-N-(3-cyano-4-fluoro-1H-indol-7-yl)-1-(2-hydroxy-1,1-dimethyl-ethyl)pyrazole-4-sulfonamide] | 250 to 1000 | < 250
Cc1ccc(NS(=O)(=O)c2cnn([C@@H](CO)CF)c2)c2[nH]cc(C#N)c12 [Compound 246, N-(3-cyano-4-methyl-1H-indol-7-yl)-1-[(1S)-1-(fluoromethyl)-2-hydroxy-ethyl]pyrazole-4-sulfonamide] | 250 to 1000 | < 250
